# Measurements: paper PMC10056348, “Photocaged Histone Deacetylase Inhibitors as Prodrugs in Targeted Cancer Therapy” (Pharmaceuticals, 2023)
# What was measured:
# [1] = biological target: T1, human recombinant HDAC6 (Homo sapiens, UniProt Q9UBN7); assay: Fluorogenic HDAC enzyme inhibition assay (ZMAL substrate), HDAC6; assay type: biochemical
# T1 construct: purchased BPS Bioscience Inc. 50006
# T1 sequence (Q9UBN7 1-1215): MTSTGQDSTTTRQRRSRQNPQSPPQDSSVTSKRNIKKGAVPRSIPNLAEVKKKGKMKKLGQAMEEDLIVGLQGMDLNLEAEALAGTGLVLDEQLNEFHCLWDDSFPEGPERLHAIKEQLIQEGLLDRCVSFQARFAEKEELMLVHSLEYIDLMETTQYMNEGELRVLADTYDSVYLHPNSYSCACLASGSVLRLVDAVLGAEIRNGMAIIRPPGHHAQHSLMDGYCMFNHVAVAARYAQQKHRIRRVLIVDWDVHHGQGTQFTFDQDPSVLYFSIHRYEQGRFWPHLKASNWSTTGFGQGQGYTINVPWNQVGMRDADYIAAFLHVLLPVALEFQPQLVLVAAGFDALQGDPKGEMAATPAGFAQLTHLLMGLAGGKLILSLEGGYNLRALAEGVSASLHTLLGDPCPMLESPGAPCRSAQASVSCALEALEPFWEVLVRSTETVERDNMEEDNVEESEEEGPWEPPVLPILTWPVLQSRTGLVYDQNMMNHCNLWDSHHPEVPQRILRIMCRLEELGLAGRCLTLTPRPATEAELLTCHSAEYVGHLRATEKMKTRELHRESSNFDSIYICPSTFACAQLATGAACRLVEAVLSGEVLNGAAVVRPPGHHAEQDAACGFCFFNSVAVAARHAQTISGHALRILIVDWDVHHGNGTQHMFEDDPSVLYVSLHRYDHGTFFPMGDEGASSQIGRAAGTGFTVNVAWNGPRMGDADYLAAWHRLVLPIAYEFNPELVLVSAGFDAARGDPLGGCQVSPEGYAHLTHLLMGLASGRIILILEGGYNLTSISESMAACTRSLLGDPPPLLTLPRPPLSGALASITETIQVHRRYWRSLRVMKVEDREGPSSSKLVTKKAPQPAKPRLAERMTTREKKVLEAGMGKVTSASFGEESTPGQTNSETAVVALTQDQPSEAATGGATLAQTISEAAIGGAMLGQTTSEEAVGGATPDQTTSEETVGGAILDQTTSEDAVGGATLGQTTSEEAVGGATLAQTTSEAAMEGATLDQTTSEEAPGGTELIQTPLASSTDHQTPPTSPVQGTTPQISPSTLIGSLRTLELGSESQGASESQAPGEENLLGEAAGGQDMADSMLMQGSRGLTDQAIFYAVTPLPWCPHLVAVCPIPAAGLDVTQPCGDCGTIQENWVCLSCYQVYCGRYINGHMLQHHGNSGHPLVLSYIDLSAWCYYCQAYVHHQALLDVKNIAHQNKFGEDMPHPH
# Experimental: First, predilutions (100-fold final assay concentration) of test compounds or reference inhibitors were prepared. To this end, 3-fold serial dilutions of the respective DMSO stock solutions were prepared in DMSO using clear V-bottom 96-well microplates (Greiner Bio-One, Greiner AG, Kremsmünster, Austria). Predilutions designated for photolysis were irradiated for 10 min using the UV reactor described above. […] Next, 5.0 µL of these serial dilutions in assay buffer were transferred into 96-well microplates (OptiPlate-96 Black, PerkinElmer, Waltham, MA, USA). […] Fluorescence (excitation: 355 nm, emission: 460 nm) was measured using a FLUOstar OPTIMA microplate reader (BMG LABTECH GmbH, Ortenberg, Germany). IC50 values were determined by generating normalized dose–response curves using the built-in “log(inhibitor) vs. response (three parameters)” equation provided by GraphPad Prism (GraphPad Prism 9.0, San Diego, CA, USA). All compounds were tested in duplicates; reported mean IC50 values, including standard deviation, were calculated from at least two independent experiments.
# [2] = tested on: acetyl-α-tubulin in MV-3 cells; assay: Immunoblot of acetyl-α-tubulin (marker of HDAC6 inhibition); assay type: cell-based; conditions: 24 h, 3.1 µM
# Experimental: MV-3 cells were seeded to cell culture flasks and cultured for 48 h. Aliquots of the DMSO stock solution (10 mM) designated for photolysis were irradiated for 10 min with the UV reactor (see Section 4.3). The cells were treated with the stock solutions, processed with or without irradiation, of the indicated concentration or vehicle (DMSO) for 24 h. Cell lysis was performed with Cell Extraction Buffer (10 mM Tris, pH 7.4, 100 mM NaCl, 1 mM EDTA, 1 mM EGTA, 1 mM NaF, 20 mM Na4P2O7, 2 mM Na3VO4, 1% Triton™ ×-100, 10% glycerol, 0.1% SDS, 0.5% deoxycholate; Catalog# FNN0011, Thermo Fisher Scientific Inc., Waltham, MA, USA) and addition of Halt Protease Inhibitor Cocktail (100×) (Catalog# 78429, Life Technologies GmbH Carlsbad, CA, USA) and phenylmethanesulfonyl fluoride (Catalog# 10837091001, Sigma-Aldrich, St. Louis, MO, USA) according to manufacturer instructions. Protein content was determined by Pierce™ BCA Protein Assay Kit (Catalog# 23225, Thermo Fisher Scientific Inc., Waltham, MA, USA) according to manufacturer guidelines. Samples were denatured by Laemmli 2× Concentrate (Catalog# S3401-10VL, Sigma-Aldrich, St. Louis, MO, USA), and Precision Plus Protein Unstained Standard was used as molecular weight marker (Catalog# 1610363, Bio-Rad, Hercules, CA, USA). SDS-PAGE was performed with 10% Mini-PROTEAN TGX Stain-Free Gel at 200 V for 50 min (Catalog# 458035, Bio-Rad, Hercules, CA, USA). Afterwards, proteins were transferred with the Trans-Blot Turbo Transfer System (Catalog# 1704150, Bio-Rad, Hercules, CA, USA) to Immobilon-FL PVDF membranes (Catalog# IPFL00005, Millipore Merck, Burlington, MA, USA) at 1.0 A for 30 min and incubated with 5% milk-powder solution for 1 h at room temperature under slight agitation. Subsequently, the membranes were incubated with anti-acetyl-histone H3 (Catalog# 9677S, Cell Signaling Technology, Denver, MA, USA), anti-acetyl-α-tubulin (Catalog#5335, Cell Signaling Technology, Denver, MA, USA), and anti-GAPDH (Catalog# T0004, Affinity Biosciences, Cincinnati, OH, USA) in 1:1000–1:10000 dilutions at 4 °C, overnight. […]
# [3] = after UV irradiation (365 nm, 10 min)
Structure (SMILES),IC50 ([1]; without UV irradiation) [nM],level of acetylated α-tubulin ([2]; without UV irradiation),"IC50 [1, 3] [nM]",increase of HDAC6 inhibition upon irradiation with UV light ([1]; irradiated vs non-irradiated) [fold],"level of acetylated α-tubulin [2, 3]"
"CN(C)c1ccc(C(=O)N(CC(=O)NCc2ccccc2)Cc2ccc(C(=O)NO)cc2)cc1 [I, N-[2-(benzylamino)-2-oxoethyl]-4-(dimethylamino)-N-[4-(hydroxycarbamoyl)-benzyl]-benzamide]",13.1 ± 0.9,strong hyperacetylation,,,
"COc1cc(CONC(=O)c2ccc(CN(CC(=O)NCc3ccccc3)C(=O)c3ccc(N(C)C)cc3)cc2)c([N+](=O)[O-])cc1OC [pc-I, N-[2-(Benzylamino)-2-oxoethyl]-N-(4-{[(4,5-dimethoxy-2-nitrobenzyl)oxy]carbamoyl}benzyl)-4-(dimethylamino)benzamide]",794 ± 74.7,no increased levels of acetylated α-tubulin,21.6 ± 2.8,37,increased level of acetyl-α-tubulin
